Source: patent publication US20040185016A1, “Compositions for treatment of hyperpigmentation and methods for making and using such compositions” (priority 2002, published 2004)
Read-outs that look alike come from different tables or passages of the source. Blank lines part the entries; values can stand above or below the compound they belong to.

Legend:
[1] = 0 days
Description: (§1) The composition of Example 3 was subjected to a range of temperatures over a prolonged period of time to determine the chemical stability of selected ingredients.
(§2) Next, chemical stability of avobenzone was determined using a suitable HPLC assay.
(§3) Next, the chemical stability of octyl methoxycinnamate was determined using a suitable HPLC assay.
(§4) Next, the chemical stability of the oxybenzone sunscreen was determined for 30 and 60 days at 6° C., 25° C., 30° C., and 40° C. using a suitable HPLC assay.
(§5) Next, the chemical stability of the oxybenzone sunscreen at 90 days was determined using a suitable HPLC assay.

[2] = chemical stability of selected ingredients in the composition of Example 3 (HPLC assay); conditions: in composition of Example 3
Description: as §1, §2, §3, §4, §5

[3] = in composition of Example 1; 30 and 90 days
Description: The composition of Example 1 was subjected to a range of temperatures over a period of time from 30 to 90 days to determine the chemical stability of selected ingredients. […] “FT” refers to freeze thaw conditions (−10° to −20° C.) where the product is exposed to freezing conditions for two days and then allowed to that at controlled room temperature (15° to 30° C.) for the next five days.

ingredient content, chemical stability by HPLC [1]: 3.03 % W/W | ingredient activity after exposure of the formulation to high and low temperatures ([2]; 30 to 90 days): remained active | ingredient activity after exposure of the formulation to high and low temperatures [3]: remained active
Structure (SMILES): COc1ccc(C(=O)CC(=O)c2ccc(C(C)(C)C)cc2)cc1 [avobenzone]

ingredient activity after exposure of the formulation to high and low temperatures ([2]; 30 to 60 days): remained active | ingredient activity after exposure of the formulation to high and low temperatures ([2]; 30 to 90 days): remained active | ingredient content, chemical stability by HPLC ([2]; 30 days, 25°): 5.98 % W/W | ingredient content, chemical stability by HPLC ([2]; 30 days, 30°): 5.95 % W/W | ingredient content, chemical stability by HPLC ([2]; 30 days, 40°): 6.04 % W/W | ingredient content, chemical stability by HPLC ([2]; 60 days, 25°): 6.04 % W/W | ingredient content, chemical stability by HPLC ([2]; 60 days, 30°): 6.02 % W/W | ingredient content, chemical stability by HPLC ([2]; 60 days, 40°): 6.07 % W/W | ingredient content, chemical stability by HPLC ([2]; 90 days, 6°): 6.05 % W/W | ingredient content, chemical stability by HPLC ([2]; 90 days, 25°): 6.09 % W/W | ingredient content, chemical stability by HPLC ([2]; 90 days, 30°): 6.07 % W/W | ingredient content, chemical stability by HPLC ([2]; 90 days, 40°): 6.06 % W/W | ingredient content, chemical stability by HPLC ([2]; 90 days, FT (freeze thaw)): 6.09 % W/W | ingredient content, chemical stability by HPLC ([2]; day 0, 25°): 6.07 % W/W
Structure (SMILES): COc1ccc(C(=O)c2ccccc2)c(O)c1 [oxybenzone]

ingredient content, chemical stability by HPLC [1]: 7.61 % W/W
Structure (SMILES): CCCCC(CC)COC(=O)C=Cc1ccc(OC)cc1 (stereo not drawn) [octyl methoxycinnamate]

ingredient content, chemical stability by HPLC [1]: 3.95 % W/W | ingredient activity after exposure of the formulation to high and low temperatures ([2]; 30 to 90 days): remained active | ingredient activity after exposure of the formulation to high and low temperatures [3]: remains active
Structure (SMILES): Oc1ccc(O)cc1 [hydroquinone]
